The text below walks through data of patent publication US20240132489A1, “AROMATIC HETEROCYCLIC COMPOUND, PHARMACEUTICAL COMPOSITION, AND USE THEREOF” (GT APEIRON THERAPEUTICS LIMITED, priority 2020, published 2024).

Assay [1] deals with CDK7/cyclin H/MAT1 complex (Homo sapiens (Human), UniProt P50613). The assay can be described thus: In vitro enzymatic inhibitory activity test, CDK7. In kind it is biochemical. Particulars: Caliper mobility shift, 180 min at 27° C. How it is done:
(§1) CDK7/CyclinH was diluted in a test buffer solution (20 mM MES PH6.75, 0.01% Tween20, 50 ug/mL BSA, 6 mM MgCl2) to obtain a corresponding enzyme solution with a 2.4× concentration. CDK2/CyclinE1 was diluted in a test buffer solution (20 mM MES PH6.75, 0.01% Tween20, 50 ug/mL BSA, 6 mM MgCl2) to obtain a corresponding enzyme solution with a 2.4× concentration. CDK9/CyclinT1 was diluted in a test buffer solution (20 mM MES PH6.75, 0.01% Tween20, 50 ug/mL BSA, 10 mM MgCl2) to obtain a corresponding enzyme solution with a 2.4× concentration. CDK12/CyclinK was diluted in a test buffer solution (80 mM MES PH6.5, 0.01% Tween20, 50 ug/mL BSA, 10 mM MgCl2) to obtain a corresponding enzyme solution with a 2.4× concentration. The compounds were dissolved in dimethyl sulfoxide (DMSO) at a concentration of 10 mM. […] 2 ul of a test compound solution was mixed with 5 ul of enzyme solution. After incubating for 10 min, 5 ul of the mixed solution of the polypeptide substrate and ATP was added. After incubating at 27° C. for 180 min, 4 uL of EDTA with a 120 mM concentration was added to each sample to stop the reaction. […] A CDK9/cyclin TI complex (8 nM) and a “5-FAM-CDK9tide” peptide substrate (2 μM, synthetic fluorophore labeled peptide having the following sequence: 5-FAM-GSRTPMY-NH2, where 5-FAM was as defined above, and NH2 represented C-terminal amide) were used for testing the CDK9 inhibition. […] A CDK2/cyclin E1 complex (0.5 nM) and the “5-FAM-CDK7tide” (2 μM) as defined above were used for testing the CDK2 inhibition.
(§2) Electrophoretic separation was performed on Caliper EZ Reader II by means of a fluorogenic substrate and a phosphorylated product to analyze the reaction mixture. Data were calculated by using GraphPad Prism version 6.0. IC50 values were adjusted by means of a nonlinear regression model using a dose-response curve.

Another assay addresses CDK2/cyclin E1 complex (Homo sapiens (Human), UniProt P24941). The assay can be described thus: In vitro enzymatic inhibitory activity test, CDK2. It counts as biochemical. Particulars: Caliper mobility shift, 180 min at 27° C. Here is the method:
CDK7/CyclinH was diluted in a test buffer solution (20 mM MES PH6.75, 0.01% Tween20, 50 ug/mL BSA, 6 mM MgCl2) to obtain a corresponding enzyme solution with a 2.4× concentration. CDK2/CyclinE1 was diluted in a test buffer solution (20 mM MES PH6.75, 0.01% Tween20, 50 ug/mL BSA, 6 mM MgCl2) to obtain a corresponding enzyme solution with a 2.4× concentration. CDK9/CyclinT1 was diluted in a test buffer solution (20 mM MES PH6.75, 0.01% Tween20, 50 ug/mL BSA, 10 mM MgCl2) to obtain a corresponding enzyme solution with a 2.4× concentration. CDK12/CyclinK was diluted in a test buffer solution (80 mM MES PH6.5, 0.01% Tween20, 50 ug/mL BSA, 10 mM MgCl2) to obtain a corresponding enzyme solution with a 2.4× concentration. […] 2 ul of a test compound solution was mixed with 5 ul of enzyme solution. After incubating for 10 min, 5 ul of the mixed solution of the polypeptide substrate and ATP was added. After incubating at 27° C. for 180 min, 4 uL of EDTA with a 120 mM concentration was added to each sample to stop the reaction. […] A CDK9/cyclin TI complex (8 nM) and a “5-FAM-CDK9tide” peptide substrate (2 μM, synthetic fluorophore labeled peptide having the following sequence: 5-FAM-GSRTPMY-NH2, where 5-FAM was as defined above, and NH2 represented C-terminal amide) were used for testing the CDK9 inhibition. […] A CDK2/cyclin E1 complex (0.5 nM) and the “5-FAM-CDK7tide” (2 μM) as defined above were used for testing the CDK2 inhibition.
as §2

For a further assay, the target named is CDK9/CyclinT1 (Homo sapiens (Human), UniProt P50750). The assay is described as follows: In vitro enzymatic inhibitory activity test, CDK9. In kind it is biochemical. Particulars: Caliper mobility shift, 180 min at 27° C. How it is done: as §1, §2
Assay [2] concerns the target CDK12(aa686-1082)/cyclin K complex (Homo sapiens (Human), UniProt Q9NYV4). The assay can be described thus: In vitro enzymatic inhibitory activity test, CDK12. In kind it is biochemical. The following applies: Caliper mobility shift, 180 min at 27° C. Here is the method:
as §1, §2

The next assay relates to HCC70 cells. The assay is described as follows: Cell bioactivity detection (CyQuant), HCC70. In kind it is cell-based. Particulars: Homo sapiens, HCC70, 72 h, human breast cancer cells HCC70, 72 hours. How it is done: (§3) Trypsinization was performed on A2780 and HCC70 cells. Cell suspensions were respectively transferred to 15 mL of centrifuge tubes and centrifuged at 800 rpm for 5 min. The supernatant was discarded. Resuspension in a fresh culture medium (RPMI 1640+10% FBS) was performed. After counting, the cells were inoculated at 2000/well in a 384-well plate (50 φL of 1640+10% FBS culture medium was added to the 2nd line and the 23rd line of the 384-well plate, and 50 μL of DPBS was added to surrounding wells). Incubation in an incubator (37° C., 5% CO2) was performed overnight.
(§4) The compound was added to the well plate the next day. The compound had the highest concentration of 10 μM and was diluted at the ratio of 1:4 to form 9 concentrations. The positive compound Paclitaxel had the highest concentration of 1 μM and was diluted at the ratio of 1:3 to form 9 concentrations. The DMSO content of each well was unified to 0.2%. A cell plate was centrifuged at 800 rpm for 30 seconds. Incubation for 72 hours in an incubator (37° C., 5% CO2) was performed. On the fourth day, a Cyquant reagent (3×) was prepared according to kit instructions. Each 384-well plate was prepared in the following proportions: DPBS: 11.568 mL, CyQuant® Direct nucleic acid stain: 72 μL, CyQuant® Direct background suppressor: 360 ILL. The plates were uniformly mixed and placed for standby application at room temperature. The cell plate was taken out and placed at room temperature to be balanced for 30 min. 25 μL of Cyquant reagent (3×) was dispensed to the cells in each well of the 384-well plates by using a Multi-drop dispenser. Incubation at 37° C. for 60 or more minutes was performed. The plates were read by Acumen (Acumen was configured to have a 488 nm excitation wavelength). IC50 results were analyzed by XLFIT5 of the IDBS company.

A further assay concerns A2780 cells. The assay is described as follows: Cell bioactivity detection (CyQuant), A2780. In kind it is cell-based, human. Particulars: Homo sapiens, A2780, 72 h, ovarian carcinoma cells A2780, 72 hours. How it is done: as §3, §4

Chain of CDK7/cyclin H/MAT1 complex (P50613 whole entry, species assumed): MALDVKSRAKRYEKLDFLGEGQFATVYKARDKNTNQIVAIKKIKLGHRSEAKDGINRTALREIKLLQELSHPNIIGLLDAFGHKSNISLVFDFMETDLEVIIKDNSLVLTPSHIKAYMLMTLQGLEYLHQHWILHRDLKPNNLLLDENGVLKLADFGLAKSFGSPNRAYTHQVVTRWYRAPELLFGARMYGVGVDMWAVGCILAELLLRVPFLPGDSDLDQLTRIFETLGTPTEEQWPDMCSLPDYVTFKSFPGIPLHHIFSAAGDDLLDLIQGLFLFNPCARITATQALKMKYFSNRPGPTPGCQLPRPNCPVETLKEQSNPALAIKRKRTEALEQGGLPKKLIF
Chain of CDK7/cyclin H/MAT1 complex (P51946 whole entry partner, species assumed): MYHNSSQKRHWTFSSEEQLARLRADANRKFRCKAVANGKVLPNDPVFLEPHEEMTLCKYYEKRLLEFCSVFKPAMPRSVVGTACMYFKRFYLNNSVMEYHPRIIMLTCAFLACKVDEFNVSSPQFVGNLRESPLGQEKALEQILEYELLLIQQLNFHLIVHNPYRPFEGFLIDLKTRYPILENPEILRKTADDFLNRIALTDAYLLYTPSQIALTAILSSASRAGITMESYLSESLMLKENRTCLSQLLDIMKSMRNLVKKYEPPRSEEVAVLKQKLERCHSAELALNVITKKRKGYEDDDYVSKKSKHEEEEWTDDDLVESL
Chain of CDK7/cyclin H/MAT1 complex (P51948 whole entry partner, species assumed): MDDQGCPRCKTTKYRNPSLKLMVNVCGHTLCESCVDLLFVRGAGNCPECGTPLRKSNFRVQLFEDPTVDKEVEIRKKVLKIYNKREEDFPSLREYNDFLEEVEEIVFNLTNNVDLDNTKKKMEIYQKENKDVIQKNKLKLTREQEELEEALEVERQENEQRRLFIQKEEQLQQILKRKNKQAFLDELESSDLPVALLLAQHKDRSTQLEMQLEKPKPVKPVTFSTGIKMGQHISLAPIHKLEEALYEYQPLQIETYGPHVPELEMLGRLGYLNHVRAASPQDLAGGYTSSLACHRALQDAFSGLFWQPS
Chain of CDK12(aa686-1082)/cyclin K complex (Q9NYV4 686-1082, species assumed): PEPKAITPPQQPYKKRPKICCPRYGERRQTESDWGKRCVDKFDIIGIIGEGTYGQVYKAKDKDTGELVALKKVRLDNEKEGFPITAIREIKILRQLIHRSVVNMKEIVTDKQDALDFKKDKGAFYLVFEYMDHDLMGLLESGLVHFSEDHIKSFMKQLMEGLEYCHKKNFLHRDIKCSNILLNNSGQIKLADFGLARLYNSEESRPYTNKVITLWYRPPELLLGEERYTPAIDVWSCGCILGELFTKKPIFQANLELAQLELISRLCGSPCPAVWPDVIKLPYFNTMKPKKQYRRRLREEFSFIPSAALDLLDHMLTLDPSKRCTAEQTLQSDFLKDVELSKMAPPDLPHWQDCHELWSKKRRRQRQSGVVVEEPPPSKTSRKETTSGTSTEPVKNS
Chain of CDK12(aa686-1082)/cyclin K complex (O75909 whole entry partner, species assumed, the tested form may be a part): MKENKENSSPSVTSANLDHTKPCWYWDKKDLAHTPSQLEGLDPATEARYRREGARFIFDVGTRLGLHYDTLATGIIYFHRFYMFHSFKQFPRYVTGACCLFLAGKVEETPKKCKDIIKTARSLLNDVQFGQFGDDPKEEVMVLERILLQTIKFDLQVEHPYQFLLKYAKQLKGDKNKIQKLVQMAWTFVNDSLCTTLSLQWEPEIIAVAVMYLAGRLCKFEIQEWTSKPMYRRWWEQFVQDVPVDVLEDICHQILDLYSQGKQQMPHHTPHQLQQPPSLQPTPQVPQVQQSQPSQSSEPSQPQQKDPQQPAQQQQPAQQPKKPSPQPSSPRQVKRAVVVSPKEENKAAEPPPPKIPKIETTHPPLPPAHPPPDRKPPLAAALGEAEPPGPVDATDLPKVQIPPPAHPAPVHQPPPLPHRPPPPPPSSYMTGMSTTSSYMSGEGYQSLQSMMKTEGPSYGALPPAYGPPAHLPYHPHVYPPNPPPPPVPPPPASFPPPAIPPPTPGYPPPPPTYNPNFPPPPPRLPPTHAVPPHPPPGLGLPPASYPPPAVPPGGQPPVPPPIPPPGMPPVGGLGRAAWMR
Chain of CDK9/CyclinT1 (P50750 whole entry, species assumed, the tested form may be a part): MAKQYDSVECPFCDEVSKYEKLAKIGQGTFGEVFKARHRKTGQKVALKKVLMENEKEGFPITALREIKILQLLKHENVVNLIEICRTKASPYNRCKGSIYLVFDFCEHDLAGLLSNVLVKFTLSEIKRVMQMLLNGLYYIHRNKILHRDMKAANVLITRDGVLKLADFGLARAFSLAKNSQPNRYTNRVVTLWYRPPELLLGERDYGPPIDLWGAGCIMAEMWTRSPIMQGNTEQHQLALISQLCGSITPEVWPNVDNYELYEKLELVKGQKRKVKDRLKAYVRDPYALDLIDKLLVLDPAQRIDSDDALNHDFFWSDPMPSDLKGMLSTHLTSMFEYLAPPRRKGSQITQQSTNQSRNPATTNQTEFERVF
Chain of CDK9/CyclinT1 (O60563 whole entry partner, species assumed, the tested form may be a part): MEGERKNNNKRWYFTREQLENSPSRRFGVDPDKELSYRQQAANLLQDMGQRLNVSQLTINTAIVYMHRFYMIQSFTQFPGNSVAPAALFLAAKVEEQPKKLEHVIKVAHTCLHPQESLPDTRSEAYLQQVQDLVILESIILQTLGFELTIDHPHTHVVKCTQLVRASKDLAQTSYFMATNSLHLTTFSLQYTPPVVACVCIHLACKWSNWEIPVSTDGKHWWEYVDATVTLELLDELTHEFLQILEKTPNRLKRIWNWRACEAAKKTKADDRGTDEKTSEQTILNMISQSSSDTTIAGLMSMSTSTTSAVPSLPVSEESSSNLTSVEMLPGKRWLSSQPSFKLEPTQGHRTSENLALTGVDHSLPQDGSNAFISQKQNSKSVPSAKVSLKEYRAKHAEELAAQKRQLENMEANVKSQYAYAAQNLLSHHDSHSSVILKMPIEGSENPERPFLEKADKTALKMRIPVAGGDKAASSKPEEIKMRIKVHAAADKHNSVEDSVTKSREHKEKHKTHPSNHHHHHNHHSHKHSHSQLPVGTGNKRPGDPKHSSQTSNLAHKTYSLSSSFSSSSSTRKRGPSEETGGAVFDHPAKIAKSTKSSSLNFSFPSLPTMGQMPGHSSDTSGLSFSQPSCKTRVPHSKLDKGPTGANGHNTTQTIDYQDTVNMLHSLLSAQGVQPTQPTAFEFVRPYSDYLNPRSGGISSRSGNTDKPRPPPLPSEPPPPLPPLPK

As a reminder, the IC50 is the concentration needed to halve the response being measured. Regarding `FC(F)(F)c1cnc(N[C@H]2CCCNC2)nc1-c1c[nH]c2nc(N3CCC4(COC4)C3)ccc12` [Compound 8, (S)-4-(6-(2-oxa-6-azaspiro[3.4]octan-6-yl)-1H-pyrrolo[2,3-b]pyridin-3-yl)-N-(piperidin-3-yl)-5-(trifluoromethyl)pyrimidine-2-amine], the IC50 in assay [1] came to 0.0403 µM; on CDK2/cyclin E1 complex it was 17.5 µM; at CDK9/CyclinT1, 15.9 µM; in assay [2], 9.32 µM; with HCC70 cells it was 0.016 µM; in the assay with A2780 cells, 0.0191 µM.
With `FC(F)(F)c1cnc(N[C@H]2CCCNC2)nc1-c1c[nH]c2nc(N3CCC4(CCOC4)CC3)ccc12` [Compound 9, (S)-4-(6-(2-oxa-8-azaspiro[4.5]decan-8-yl)-1H-pyrrolo[2,3-b]pyridin-3-yl)-N-(piperidin-3-yl)-5-(trifluoromethyl)pyrimidine-2-amine], the IC50 in assay [1] was 0.0287 µM; at CDK2/cyclin E1 complex, 7.29 µM; at CDK9/CyclinT1, 4.53 µM; in assay [2], 1.27 µM; in the assay on HCC70 cells, 0.044 µM; with A2780 cells, 0.0363 µM.
For `FC(F)(F)c1cnc(N[C@H]2CCCNC2)nc1-c1c[nH]c2nc(N3CCCC4(CCOCC4)C3)ccc12` [Compound 10, (S)-4-(6-(9-oxa-2-azaspiro[5.5]undecan-2-yl)-1H-pyrrolo[2,3-b]pyridin-3-yl)-N-(piperidin-3-yl)-5-(trifluoromethyl)pyrimidine-2-amine], the IC50 in assay [1] amounted to 0.027 µM; at CDK2/cyclin E1 complex, 2.09 µM; on CDK9/CyclinT1, 4.01 µM; in assay [2], 0.823 µM; in the assay on HCC70 cells, 0.102 µM; in the assay on A2780 cells it was 0.109 µM.
For the compound `FC(F)(F)c1cnc(N[C@H]2CCCNC2)nc1-c1c[nH]c2nc(N3CC4(CCOC4)C3)ccc12` [Compound 11, (S)-4-(6-(6-oxa-2-azaspiro[3.4]octan-2-yl)-1H-pyrrolo[2,3-b]pyridin-3-yl)-N-(piperidin-3-yl)-5-(trifluoromethyl)pyrimidine-2-amine], the IC50 is 0.0278 µM in assay [1]; 6.45 µM on CDK2/cyclin E1 complex; 4.23 µM on CDK9/CyclinT1; 1.95 µM in assay [2]; 0.048 µM in the assay on HCC70 cells; 0.0412 µM in the assay with A2780 cells.
Regarding `C[C@@H]1OCC2(CCN(c3ccc4c(-c5nc(N[C@H]6CCCNC6)ncc5C(F)(F)F)c[nH]c4n3)CC2)[C@@H]1N` [Compound 12, (3S,4S)-3-methyl-8-(3-(2-(((S)-piperidin-3-yl)amino)-5-(trifluoromethyl)pyrimidin-4-yl)-1H-pyrrol[2,3-b]pyridin-6-yl)-2-oxa-8-azaspiro[4.5]decan-4-amine], the IC50 in assay [1] worked out at 0.0174 µM; at CDK2/cyclin E1 complex, 3.79 µM; at CDK9/CyclinT1, 2.79 µM; in assay [2] it was 1.17 µM; with HCC70 cells it was 0.069 µM; in the assay on A2780 cells it was 0.0901 µM.
For `FC(F)(F)c1cnc(N[C@H]2CCCNC2)nc1-c1c[nH]c2nc(N3C[C@@H]4C[C@H]3CO4)ccc12` [Compound 13, 4-(6-((1S,4S)-2-oxa-5-azabicyclo[2.2.1]heptan-5-yl)-1H-pyrrolo[2,3-b]pyridin-3-yl)-N—((S)-piperidin-3-yl)-5-(trifluoromethyl)pyrimidine-2-amine], the IC50 amounted to 0.00705 µM in assay [1]; 2.67 µM on CDK2/cyclin E1 complex; 3.43 µM on CDK9/CyclinT1; 2.64 µM in assay [2]; 0.029 µM in the assay on HCC70 cells; 0.0352 µM in the assay with A2780 cells.
`FC(F)(F)c1cnc(N[C@H]2CCCNC2)nc1-c1c[nH]c2nc(N3CC4(COC4)C3)ccc12` [Compound 14, (S)-4-(6-(2-oxa-6-azaspiro[3.3]heptan-6-yl)-1H-pyrrolo[2,3-b]pyridin-3-yl)-N-(piperidin-3-yl)-5-(trifluoromethyl)pyrimidine-2-amine]: the IC50 in assay [1] was found to be 0.00711 µM; on CDK2/cyclin E1 complex it was 3.29 µM; at CDK9/CyclinT1, 1.67 µM; in assay [2], 0.555 µM; in the assay with HCC70 cells, 0.024 µM; in the assay on A2780 cells, 0.011 µM.
In the case of `FC(F)(F)c1cnc(N[C@H]2CCCNC2)nc1-c1c[nH]c2nc(N3CCC4(CC3)COC4)ccc12` [Compound 15, (S)-4-(6-(2-oxa-7-azaspiro[3.5]nonan-7-yl)-1H-pyrrolo[2,3-b]pyridin-3-yl)-N-(piperidin-3-yl)-5-(trifluoromethyl)pyrimidine-2-amine], the IC50 in assay [1] was 0.0165 µM; at CDK2/cyclin E1 complex, 4.15 µM; on CDK9/CyclinT1, 3.32 µM; in assay [2] it was 1.12 µM; with HCC70 cells, 0.012 µM; with A2780 cells, 0.01 µM.
In the case of `FC(F)(F)c1cnc(N[C@H]2CCCNC2)nc1-c1c[nH]c2nc(N3CCC4(CCO4)CC3)ccc12` [Compound 16, (S)-4-(6-(1-oxa-7-azaspiro[3.5]nonan-7-yl)-1H-pyrrolo[2,3-b]pyridin-3-yl)-N-(piperidin-3-yl)-5-(trifluoromethyl)pyrimidine-2-amine], the IC50 in assay [1] came out at 0.0108 µM; on CDK2/cyclin E1 complex, 2.88 µM; on CDK9/CyclinT1, 3.58 µM; in assay [2] it was 1.23 µM; with HCC70 cells it was 0.013 µM; in the assay on A2780 cells, 0.011 µM.
For `FC(F)(F)c1cnc(N[C@H]2CCCNC2)nc1-c1c[nH]c2nc(N3CC4(CCCOC4)C3)ccc12` [Compound 17, (S)-4-(6-(6-oxa-2-azaspiro[3.5]nonan-2-yl)-1H-pyrrolo[2,3-b]pyridin-3-yl)-N-(piperidin-3-yl)-5-(trifluoromethyl)pyrimidine-2-amine], the IC50 in assay [1] is 0.02 µM; at CDK2/cyclin E1 complex, 5.48 µM; at CDK9/CyclinT1, 4.25 µM; in assay [2] it was 1.63 µM; with HCC70 cells it was 0.102 µM; with A2780 cells, 0.212 µM.
